Reference: publication PMC3692398 (Biochemical pharmacology, 2013)
Read-outs that look alike come from different tables or passages of the source.

How the values were obtained:
hDAT [1] = target: T1, hDAT (Homo sapiens, UniProt Q01959); assay: Inhibition of [3H]DA uptake, intact HEK-hDAT cells; type: cell-based; settings: for IC50: read-out: Inhibition of [3H]neurotransmitter uptake IC50 ± sem, hDAT [3H]DA, 20 nM [3H]DA, intact cells
h5-HT2C receptor [2] = target: T2, h5-HT2C receptor (Homo sapiens, UniProt P28335); type: cell-based
T2 sequence (P28335 33-458): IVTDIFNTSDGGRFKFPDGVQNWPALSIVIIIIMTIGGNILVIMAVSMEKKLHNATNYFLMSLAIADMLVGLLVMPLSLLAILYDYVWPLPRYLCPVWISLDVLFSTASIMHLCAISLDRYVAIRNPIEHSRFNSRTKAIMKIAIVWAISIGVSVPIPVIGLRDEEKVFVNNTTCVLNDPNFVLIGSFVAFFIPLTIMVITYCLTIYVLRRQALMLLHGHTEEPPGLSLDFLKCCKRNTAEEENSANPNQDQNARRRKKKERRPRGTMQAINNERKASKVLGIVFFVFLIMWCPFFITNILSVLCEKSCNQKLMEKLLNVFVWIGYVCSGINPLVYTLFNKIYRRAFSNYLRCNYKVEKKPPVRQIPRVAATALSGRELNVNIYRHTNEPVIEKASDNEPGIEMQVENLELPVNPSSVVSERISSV

h5-HT1A receptor [3] = target: T3, h5-HT1A receptor (Homo sapiens, UniProt P08908); assay: Stimulation of [35S]GTPγS binding, HEK-h5-HT1A membranes; type: biochemical; settings: for h5-HT1A Stimulation of [35S]GTPγS binding % maximum stimulation ± sem: normalized to the maximal stimulation by 5-HT; for EC50: read-out: h5-HT1A Stimulation of [35S]GTPγS binding EC50 ± sem
T3 sequence (P08908 1-422): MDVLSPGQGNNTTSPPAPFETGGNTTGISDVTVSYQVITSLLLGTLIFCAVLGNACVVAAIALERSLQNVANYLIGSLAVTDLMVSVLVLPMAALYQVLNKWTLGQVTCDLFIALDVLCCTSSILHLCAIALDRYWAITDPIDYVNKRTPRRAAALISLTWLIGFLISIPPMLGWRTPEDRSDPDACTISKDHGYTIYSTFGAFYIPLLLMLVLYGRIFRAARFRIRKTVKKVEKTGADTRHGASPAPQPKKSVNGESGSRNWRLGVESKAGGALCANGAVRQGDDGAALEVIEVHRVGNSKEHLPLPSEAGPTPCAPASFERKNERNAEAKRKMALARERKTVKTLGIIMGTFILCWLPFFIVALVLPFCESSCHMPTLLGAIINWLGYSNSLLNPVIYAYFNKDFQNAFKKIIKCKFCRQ

human D4.4 receptor = target: T4, human D4.4 receptor (Homo sapiens, UniProt P21917); type: binding; settings: test drugs up to 10 µM; words give concentration range, 'low' = low nanomolar
T4 sequence (P21917 1-419): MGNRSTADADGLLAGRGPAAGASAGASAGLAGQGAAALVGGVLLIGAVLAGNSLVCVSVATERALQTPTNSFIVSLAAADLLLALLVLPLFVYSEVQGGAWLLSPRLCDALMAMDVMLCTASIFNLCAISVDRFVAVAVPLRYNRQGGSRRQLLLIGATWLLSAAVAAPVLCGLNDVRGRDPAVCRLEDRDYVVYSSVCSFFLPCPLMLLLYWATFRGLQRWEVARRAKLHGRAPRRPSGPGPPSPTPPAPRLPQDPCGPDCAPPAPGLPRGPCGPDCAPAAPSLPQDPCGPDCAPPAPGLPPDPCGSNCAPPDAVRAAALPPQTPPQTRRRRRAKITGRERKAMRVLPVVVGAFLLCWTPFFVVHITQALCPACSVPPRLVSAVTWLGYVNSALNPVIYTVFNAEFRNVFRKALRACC

hNET [4] = target: T5, hNET (Homo sapiens, UniProt P23975); assay: cell-based; type: cell-based; settings: for IC50: read-out: Inhibition of [3H]neurotransmitter uptake IC50 ± sem, hNET [3H]NE
T5 sequence (P23975 whole entry): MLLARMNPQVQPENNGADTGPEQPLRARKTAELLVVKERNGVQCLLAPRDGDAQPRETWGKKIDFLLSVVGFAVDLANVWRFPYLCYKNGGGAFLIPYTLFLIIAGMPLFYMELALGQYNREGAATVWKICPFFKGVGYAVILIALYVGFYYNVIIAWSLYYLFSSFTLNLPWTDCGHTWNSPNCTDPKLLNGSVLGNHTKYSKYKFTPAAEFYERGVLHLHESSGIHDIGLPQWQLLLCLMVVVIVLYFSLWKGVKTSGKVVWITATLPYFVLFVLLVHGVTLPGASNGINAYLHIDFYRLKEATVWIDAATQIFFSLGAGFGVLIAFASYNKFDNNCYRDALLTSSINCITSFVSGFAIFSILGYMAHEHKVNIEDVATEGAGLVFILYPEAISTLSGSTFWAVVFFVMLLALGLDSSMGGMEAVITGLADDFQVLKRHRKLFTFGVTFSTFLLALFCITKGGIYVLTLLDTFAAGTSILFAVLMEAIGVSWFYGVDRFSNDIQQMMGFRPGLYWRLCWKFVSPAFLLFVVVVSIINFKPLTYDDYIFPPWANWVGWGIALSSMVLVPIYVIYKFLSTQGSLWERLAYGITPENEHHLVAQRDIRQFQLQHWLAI

hSERT [5] = target: T6, hSERT (Homo sapiens, UniProt P31645); assay: Inhibition of [3H]5-HT uptake, intact HEK-hSERT cells; type: cell-based; settings: for IC50: read-out: Inhibition of [3H]neurotransmitter uptake IC50 ± sem, hSERT [3H]5-HT, 20 nM [3H]5-HT, intact cells
T6 sequence (P31645 whole entry): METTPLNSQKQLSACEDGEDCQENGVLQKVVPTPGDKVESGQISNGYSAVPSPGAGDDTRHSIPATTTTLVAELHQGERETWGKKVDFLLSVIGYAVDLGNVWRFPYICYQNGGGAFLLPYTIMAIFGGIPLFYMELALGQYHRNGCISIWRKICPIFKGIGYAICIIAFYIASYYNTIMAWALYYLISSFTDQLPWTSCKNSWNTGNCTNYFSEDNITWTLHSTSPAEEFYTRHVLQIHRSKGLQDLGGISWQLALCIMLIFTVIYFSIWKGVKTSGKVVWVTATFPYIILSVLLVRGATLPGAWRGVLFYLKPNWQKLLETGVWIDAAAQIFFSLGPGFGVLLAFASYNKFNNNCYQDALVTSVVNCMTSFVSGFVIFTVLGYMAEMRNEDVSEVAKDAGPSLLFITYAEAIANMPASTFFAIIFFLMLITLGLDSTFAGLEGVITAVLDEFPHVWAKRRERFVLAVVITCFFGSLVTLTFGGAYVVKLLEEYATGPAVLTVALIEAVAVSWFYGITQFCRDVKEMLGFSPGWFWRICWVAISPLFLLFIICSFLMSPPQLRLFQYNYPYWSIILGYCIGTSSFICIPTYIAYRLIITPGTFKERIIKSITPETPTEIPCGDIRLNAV

h5-HT1A receptor [6] = target: T3, h5-HT1A receptor; assay: [3H]8-OH-DPAT binding, HEK-h5-HT1A; settings: read-out: Inhibition of radioligand binding Ki ± sem, h5-HT1A [3H]8OH-DPAT
human DA D2 receptor = human DA D2 receptor (Homo sapiens, UniProt P14416); type: binding; settings: test drugs up to the maximal concentration tested (10 µM)
Chain of human DA D2 receptor (P14416 whole entry): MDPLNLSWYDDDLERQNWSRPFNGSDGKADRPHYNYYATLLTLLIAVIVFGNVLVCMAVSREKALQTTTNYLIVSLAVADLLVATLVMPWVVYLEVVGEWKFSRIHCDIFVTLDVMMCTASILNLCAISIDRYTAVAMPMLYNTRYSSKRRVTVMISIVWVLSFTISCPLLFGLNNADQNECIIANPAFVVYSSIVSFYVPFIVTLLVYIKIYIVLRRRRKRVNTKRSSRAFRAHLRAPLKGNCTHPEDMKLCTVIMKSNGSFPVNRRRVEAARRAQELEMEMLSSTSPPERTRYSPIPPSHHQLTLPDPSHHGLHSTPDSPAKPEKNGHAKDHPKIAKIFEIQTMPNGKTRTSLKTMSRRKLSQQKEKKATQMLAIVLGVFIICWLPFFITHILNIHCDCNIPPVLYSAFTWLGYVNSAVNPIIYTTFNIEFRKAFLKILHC

h5-HT2A receptor [7] = target: T7, h5-HT2A receptor (Homo sapiens, UniProt P28223); assay: [125I]DOI binding, HEK-h5-HT2A; settings: read-out: Inhibition of radioligand binding Ki ± sem, h5-HT2A [125I]DOI
T7 sequence (P28223 whole entry): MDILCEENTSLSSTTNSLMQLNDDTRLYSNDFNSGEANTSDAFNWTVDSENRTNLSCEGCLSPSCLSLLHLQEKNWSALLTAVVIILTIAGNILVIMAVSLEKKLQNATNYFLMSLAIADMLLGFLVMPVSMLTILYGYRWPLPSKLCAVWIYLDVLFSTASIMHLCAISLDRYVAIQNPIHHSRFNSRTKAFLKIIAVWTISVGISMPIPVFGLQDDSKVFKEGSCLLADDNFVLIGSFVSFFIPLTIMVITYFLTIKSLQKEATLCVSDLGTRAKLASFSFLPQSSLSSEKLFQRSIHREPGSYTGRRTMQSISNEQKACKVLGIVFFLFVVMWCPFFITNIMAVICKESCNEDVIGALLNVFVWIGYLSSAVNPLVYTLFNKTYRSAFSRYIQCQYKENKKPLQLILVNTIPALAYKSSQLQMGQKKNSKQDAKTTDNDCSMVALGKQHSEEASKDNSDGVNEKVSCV

hDAT [8] = target: T1, hDAT; assay: Inhibition of [125I]RTI-55 binding, HEK-hDAT membranes; settings: read-out: Inhibition of [125I]RTI-55 binding Ki ± sem, hDAT; HEK-hDAT membranes
h5-HT2C receptor [9] = target: T2, h5-HT2C receptor; assay: Inhibition of 5-HT-stimulated IP-1 formation; type: cell-based; settings: 100 nM 5-HT; normalized to maximal inhibition by SB242084 (1 µM)
hNET [10] = target: T5, hNET; assay: biochemical; type: binding; settings: read-out: Inhibition of [125I]RTI-55 binding Ki ± sem, hNET
human DA D1 receptor = human DA D1 receptor (Homo sapiens, UniProt P21728); assay: [3H]SCH23390 binding, LhD1 cells; settings: test drugs up to the maximal concentration tested (10 µM)
Chain of human DA D1 receptor (P21728 whole entry): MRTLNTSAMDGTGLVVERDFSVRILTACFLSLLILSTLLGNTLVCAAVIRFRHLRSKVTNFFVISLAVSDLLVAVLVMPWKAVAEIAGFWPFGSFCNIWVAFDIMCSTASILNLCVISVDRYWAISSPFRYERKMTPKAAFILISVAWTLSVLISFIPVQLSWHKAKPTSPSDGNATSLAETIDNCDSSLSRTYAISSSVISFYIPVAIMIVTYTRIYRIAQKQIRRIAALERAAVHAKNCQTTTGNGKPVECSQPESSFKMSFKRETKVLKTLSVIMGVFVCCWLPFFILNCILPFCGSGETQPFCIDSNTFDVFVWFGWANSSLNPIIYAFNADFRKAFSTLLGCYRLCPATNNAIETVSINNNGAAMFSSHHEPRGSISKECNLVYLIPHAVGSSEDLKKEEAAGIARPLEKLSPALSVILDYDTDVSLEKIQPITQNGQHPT

human DA D3 receptor = human DA D3 receptor (Homo sapiens, UniProt P35462); assay: [3H]YM-09151-2 binding, CHOp-D3 cells; settings: test drugs up to 10 µM; words give concentration range, 'low' = low nanomolar
Chain of human DA D3 receptor (P35462 whole entry): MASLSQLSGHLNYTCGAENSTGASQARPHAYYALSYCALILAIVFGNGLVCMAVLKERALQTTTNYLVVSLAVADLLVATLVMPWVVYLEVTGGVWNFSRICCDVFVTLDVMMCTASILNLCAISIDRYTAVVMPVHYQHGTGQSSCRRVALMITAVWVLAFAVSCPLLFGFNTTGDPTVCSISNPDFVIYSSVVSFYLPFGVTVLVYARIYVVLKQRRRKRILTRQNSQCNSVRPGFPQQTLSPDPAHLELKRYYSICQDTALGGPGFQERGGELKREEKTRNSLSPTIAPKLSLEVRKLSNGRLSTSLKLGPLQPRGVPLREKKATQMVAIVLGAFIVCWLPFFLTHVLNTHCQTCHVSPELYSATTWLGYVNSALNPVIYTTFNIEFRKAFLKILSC

h5-HT2A receptor [11] = target: T7, h5-HT2A receptor; assay: Inhibition of 5-HT-stimulated IP-1 formation; type: cell-based; settings: 100 nM 5-HT; for h5-HT2A Inhibition of 5-HT-stimulated IP-1 formation % maximum inhibition ± sem: normalized to maximal inhibition by ketanserin (10 µM); for IC50: read-out: h5-HT2A Inhibition of 5-HT-stimulated IP-1 formation IC50 ± sem
hDAT [12] = target: T1, hDAT; assay: Superfusion release of preloaded [3H]DA from HEK-hDAT cells; type: cell-based; settings: for EC50: read-out: Drug-induced release of [3H]neurotransmitter EC50 ± sem, hDAT [3H]DA, superfusion, AUC
hSigma1 receptor = hSigma1 receptor (Homo sapiens, UniProt Q99720); assay: [3H]; type: binding; settings: read-out: Inhibition of [3H]pentazocine binding Ki ± sem, hSigma1
Chain of hSigma1 receptor (Q99720 whole entry, the tested form may be a part): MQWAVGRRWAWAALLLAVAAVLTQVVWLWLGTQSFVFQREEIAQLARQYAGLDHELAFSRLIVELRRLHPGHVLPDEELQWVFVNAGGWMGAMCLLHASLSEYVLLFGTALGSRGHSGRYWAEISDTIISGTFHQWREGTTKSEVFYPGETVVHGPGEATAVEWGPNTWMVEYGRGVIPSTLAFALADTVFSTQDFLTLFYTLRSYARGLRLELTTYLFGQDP

hNET [13] = target: T5, hNET; assay: Superfusion release of preloaded [3H]NE from HEK-hNET cells; type: cell-based; settings: for EC50: read-out: Drug-induced release of [3H]neurotransmitter EC50 ± sem, hNET [3H]NE, superfusion, AUC; for % maximum release ± sem, hNET [3H]NE: relative to maximal AUC induced by METH (0.3 or 1 µM)
h5-HT2C receptor [14] = target: T2, h5-HT2C receptor; assay: biochemical; type: binding; settings: read-out: Inhibition of radioligand binding Ki ± sem, h5-HT2C [125I]DOI
hVMAT2 [15] = target: T8, hVMAT2 (Homo sapiens, UniProt Q05940); assay: Superfusion release of preloaded [3H]NE from HEK-hVMAT2 cells; type: cell-based; settings: for EC50: read-out: Drug-induced release of [3H]NE EC50 ± sem, hVMAT2, superfusion
T8 sequence (Q05940 whole entry, the tested form may be a part): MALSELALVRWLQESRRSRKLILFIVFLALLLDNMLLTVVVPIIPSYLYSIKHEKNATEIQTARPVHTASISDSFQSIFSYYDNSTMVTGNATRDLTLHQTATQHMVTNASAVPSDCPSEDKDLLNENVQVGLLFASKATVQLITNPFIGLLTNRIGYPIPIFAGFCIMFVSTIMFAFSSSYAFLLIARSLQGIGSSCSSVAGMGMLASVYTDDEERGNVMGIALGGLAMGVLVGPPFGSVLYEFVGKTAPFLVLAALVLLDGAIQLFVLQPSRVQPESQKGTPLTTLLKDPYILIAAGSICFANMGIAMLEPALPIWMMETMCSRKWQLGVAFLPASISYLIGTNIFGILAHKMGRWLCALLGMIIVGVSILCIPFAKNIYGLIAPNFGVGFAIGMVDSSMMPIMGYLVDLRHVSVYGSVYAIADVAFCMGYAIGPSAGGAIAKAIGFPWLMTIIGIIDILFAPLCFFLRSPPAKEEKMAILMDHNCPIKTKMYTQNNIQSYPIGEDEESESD

hVMAT2 [16] = target: T8, hVMAT2; assay: Inhibition of [3H]5-HT uptake, HEK-hVMAT2 membrane preparation; type: biochemical; settings: read-out: Inhibition of [3H]5-HT uptake IC50 ± sem, hVMAT2; 40 nM [3H]5-HT, 2 mM MgATP
hSERT [17] = target: T6, hSERT; assay: Superfusion release of preloaded [3H]5-HT from HEK-hSERT cells; type: cell-based; settings: for EC50: read-out: Drug-induced release of [3H]neurotransmitter EC50 ± sem, hSERT [3H]5-HT, superfusion, AUC
hVMAT2 [18] = target: T8, hVMAT2; assay: Inhibition of [3H]DHTB binding, HEK-hVMAT2 membranes; settings: read-out: Inhibition of [3H]DHTB binding Ki ± sem, hVMAT2

T1 sequence (Q01959 whole entry): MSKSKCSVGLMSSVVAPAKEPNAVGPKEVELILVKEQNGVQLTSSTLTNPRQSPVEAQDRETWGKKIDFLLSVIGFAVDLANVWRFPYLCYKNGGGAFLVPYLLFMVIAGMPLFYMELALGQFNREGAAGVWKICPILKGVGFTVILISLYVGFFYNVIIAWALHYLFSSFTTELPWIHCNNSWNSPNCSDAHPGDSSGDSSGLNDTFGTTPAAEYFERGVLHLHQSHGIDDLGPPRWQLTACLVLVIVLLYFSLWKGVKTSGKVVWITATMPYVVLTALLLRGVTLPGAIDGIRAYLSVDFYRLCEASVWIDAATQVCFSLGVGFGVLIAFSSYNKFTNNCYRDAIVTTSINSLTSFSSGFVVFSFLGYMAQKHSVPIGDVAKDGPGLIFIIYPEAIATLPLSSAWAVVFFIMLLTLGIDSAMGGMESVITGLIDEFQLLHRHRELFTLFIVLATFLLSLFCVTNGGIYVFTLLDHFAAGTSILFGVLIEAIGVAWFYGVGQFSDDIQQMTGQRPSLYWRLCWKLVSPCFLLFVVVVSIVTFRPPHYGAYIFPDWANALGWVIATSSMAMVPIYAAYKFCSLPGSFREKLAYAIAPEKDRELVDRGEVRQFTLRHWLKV

SMILES: CNC(C)C(=O)c1ccccc1 (stereo not shown) [Methcathinone, methcathinone, reference compound]
- ratio of binding Ki to uptake IC50, hDAT (hDAT [1]; [125I]RTI-55 Ki / [3H]DA uptake IC50): 23
- IC50 (hDAT [1]): 0.144 ± 0.032 µM
- h5-HT2C agonist activity, inositol monophosphate (h5-HT2C receptor [2]; data not shown): partial agonists with midmicromolar potencies
- h5-HT1A Stimulation of [35S]GTPγS binding % maximum stimulation ± sem (h5-HT1A receptor [3]): 52.8 ± 6.2%
- EC50 (h5-HT1A receptor [3]): 49 ± 21 µM
- affinity for the [3H]YM-09151-2 binding site, DA D4.4 receptor (human D4.4 receptor): no measurable affinity
- ratio of binding Ki to uptake IC50, hNET (hNET [4]; [125I]RTI-55 Ki / [3H]NE uptake IC50): 144
- IC50 (hNET [4]; 20 nM [3H]NE, intact cells): 0.0311 ± 0.0051 µM
- ratio of binding Ki to uptake IC50, hSERT (hSERT [5]; [125I]RTI-55 Ki / [3H]5-HT uptake IC50): > 7.4
- IC50 (hSERT [5]): 13.5 ± 2.9 µM
- Ki (h5-HT1A receptor [6]): 29.1 ± 3.6 µM
- affinity for the [3H]YM-09151-2 binding site, DA D2 receptor (human DA D2 receptor): no measurable affinity
- Ki (h5-HT2A receptor [7]): 29.2 ± 3.3 µM
- Ki (hDAT [8]): 3.3 ± 1.1 µM
- h5-HT2C Inhibition of 5-HT-stimulated IP-1 formation % maximum inhibition ± sem (h5-HT2C receptor [9]): 17.5 ± 4.0%
- Ki (hNET [10]; HEK-hNET membranes): 4.48 ± 0.49 µM
- affinity for the [3H]SCH23390 binding site, DA D1 receptor (human DA D1 receptor): no measurable affinity
- affinity for the [3H]YM-09151-2 binding site, DA D3 receptor (human DA D3 receptor): no measurable affinity
- h5-HT2A Inhibition of 5-HT-stimulated IP-1 formation % maximum inhibition ± sem (h5-HT2A receptor [11]): 99.63 ± 0.37%
- IC50 (h5-HT2A receptor [11]): 40 ± 9.5 µM
- % maximum release ± sem, hDAT [3H]DA (hDAT [12]): 83.3 ± 4.9%
- EC50 (hDAT [12]): 3.57 ± 0.68 µM
- Ki (hSigma1 receptor): 117 ± 40 µM
- EC50 (hNET [13]): 0.228 ± 0.066 µM
- % maximum release ± sem, hNET [3H]NE (hNET [13]): 149 ± 42%
- Ki (h5-HT2C receptor [14]): 16 ± 4.2 µM
- Release of [3H]NE % maximum release ± sem or range, hVMAT2 (hVMAT2 [15]): 42 ± 10%
- EC50 (hVMAT2 [15]): 11.6 ± 7.3 µM
- IC50 (hVMAT2 [16]): 117 ± 57 µM
- EC50 (hSERT [17]): > 100 µM
- % maximum release ± sem, hSERT [3H]5-HT (hSERT [17]; relative to maximal AUC induced by PCA (10 µM)): 21.1 ± 9.8%

SMILES: CNC(C)Cc1ccc2c(c1)OCO2 (stereo not shown) [MDMA, 3,4-methylenedioxymethylamphetamine, reference compound]
- IC50 (hDAT [1]): 0.201 ± 0.047 µM
- h5-HT2C agonist activity, inositol monophosphate (h5-HT2C receptor [2]): full agonist with low micromolar potency
- h5-HT1A Stimulation of [35S]GTPγS binding % maximum stimulation ± sem (h5-HT1A receptor [3]): 65.8 ± 8.5%
- EC50 (h5-HT1A receptor [3]): 35 ± 14 µM
- affinity for the [3H]YM-09151-2 binding site, DA D4.4 receptor (human D4.4 receptor): no measurable affinity
- IC50 (hNET [4]): 0.0242 µM
- IC50 (hSERT [5]): 0.109 ± 0.017 µM
- Ki (h5-HT1A receptor [6]): 14.1 ± 2.4 µM
- affinity for the [3H]YM-09151-2 binding site, DA D2 receptor (human DA D2 receptor): no measurable affinity
- Ki (h5-HT2A receptor [7]): 8.3 ± 1.2 µM
- Ki (hVMAT2 [18]): 661 ± 58 µM
- Ki (hDAT [8]): 22 ± 5.1 µM
- h5-HT2C Inhibition of 5-HT-stimulated IP-1 formation % maximum inhibition ± sem (h5-HT2C receptor [9]): 9 ± 12%
- Ki (hNET [10]): 30.9 µM
- affinity for the [3H]SCH23390 binding site, DA D1 receptor (human DA D1 receptor): no measurable affinity
- affinity for the [3H]YM-09151-2 binding site, DA D3 receptor (human DA D3 receptor): no measurable affinity
- h5-HT2A Inhibition of 5-HT-stimulated IP-1 formation % maximum inhibition ± sem (h5-HT2A receptor [11]): 96.3 ± 3.8%
- IC50 (h5-HT2A receptor [11]): 189 ± 52 µM
- EC50 (hDAT [12]): 4.8 ± 2.3 µM
- % maximum release ± sem, hDAT [3H]DA (hDAT [12]; relative to maximal AUC induced by METH (1 or 10 µM)): 104 ± 14%
- Ki (hSigma1 receptor): 19.4 ± 6.3 µM
- EC50 (hNET [13]): 0.57 ± 0.19 µM
- % maximum release ± sem, hNET [3H]NE (hNET [13]): 116 ± 11%
- EC50 (hVMAT2 [15]): 114 ± 40 µM
- IC50 (hVMAT2 [16]): 5.8 ± 1.4 µM
- % maximum release ± sem, hSERT [3H]5-HT (hSERT [17]): 74 ±12%
- EC50 (hSERT [17]): 1.04 ± 0.27 µM
